This is an account of results in US20240239761A1, “BICYCLIC PHENOL COMPOUNDS AND USE THEREOF” (MEDSHINE DISCOVERY INC., priority 2021, published 2024).

Where two headings read alike, the source gives them in different places.

Data set [1] concerns the target THRα (Homo sapiens (Human), UniProt P10827). Briefly: GeneBLAzer TR alpha-UAS-bla HEK 293T cell-based agonist assay. To be noted: TR alpha-UAS-bla HEK 293T cells; for EC50: 22 hours incubation; for THRα maximum agnostic capability: T3 as positive control. How it is done:
When a compound enters the cell and binds to THR, the receptor binds to the DNA binding region to form a complete GAL4 dimer that utilizes the GAL4-UAS system to activate β-lactamase expression, which then decomposes the substrate CCF4-AM (coumarin).
The LiveBLAzer™M-FRET B/G (CCF4-AM) substrate was added to the cell plate and incubated for 2 hours at room temperature, shielded from light. […] By detecting the ratio of the two fluorescences (460 nm/530 nm), the EC50 of the compound was calculated using Graphpad Prism software. […] The Z-factor (greater than 0.5) is calculated to monitor the stability of each experiment.

The target in data set [2] is THRβ (Homo sapiens, UniProt P10828). Put plainly: GeneBLAzer TR beta-UAS-bla HEK 293T cell-based agonist assay. Conditions: for THRß maximum agnostic capability: TR beta-UAS-bla HEK 293T cells, T3 as positive control. From the text: The present experiment employs the GeneBLAzer® TR alpha/beta-UAS-bla HEK 293T Cell-based Assay developed by ThermoFisher. The underlying principle is that TR alpha-UAS-bla HEK 293T Cell and TR beta-UAS-bla HEK 293T Cell express B-lactamase, a reporter gene controlled by the upstream UAS sequence. When a compound enters the cell and binds to THR, the receptor binds to the DNA binding region to form a complete GAL4 dimer that utilizes the GAL4-UAS system to activate β-lactamase expression, which then decomposes the substrate CCF4-AM (coumarin). The resulting product, when excited at 409 nm, emits fluorescence at a wavelength of 447 nm. If β-lactamase is not expressed, the product generates fluorescence at a wavelength of 520 nm through FRET under excitation at 409 nm. By detecting the ratio of the two fluorescences (447 nm/520 nm), the binding status of the compound to the protein can be determined, thus allowing the calculation of the EC50 of the compound.
The ECHO liquid handling workstation was used to transfer the compound to a 384-well plate, with 10 gradient concentrations for each compound, 3-fold dilution, and duplicate wells. 1.5×10^4 cells (TR beta-UAS-bla HEK 293T Cell) or 1.0×10^4 cells (TR alpha-UAS-bla HEK 293T Cell) were seeded onto the 384-well plate. HEK 293T-TR beta cells were incubated for 16 hours in a 37° C. incubator, and HEK 293T-TR alpha cells were incubated for 22 hours. The LiveBLAzer™M-FRET B/G (CCF4-AM) substrate was added to the cell plate and incubated for 2 hours at room temperature, shielded from light. The Flexstation 3 instrument was utilized to detect the fluorescence values with the wavelength of 460 nm/530 nm emitted by the product under the excitation at 409 nm. By detecting the ratio of the two fluorescences (460 nm/530 nm), the EC50 of the compound was calculated using Graphpad Prism software. […] The Z-factor (greater than 0.5) is calculated to monitor the stability of each experiment.

Data set [3] concerns the target CYP1A2 (Homo sapiens (Human), UniProt P05177). Format: in vitro ADME. Conditions: microsomes. Here is the method: (§1) To determine the inhibitory effect of the test compound WX001 on the activity of human liver microsomal cytochrome P450 isoenzymes (CYP1A2, CYP2C9, CYP2C19, CYP2D6, and CYP3A4). First, the test compound (10.0 mM) was diluted to prepare a working solution (100×the final concentration) with a concentration of 1.00 mM. Simultaneously, working solutions were respectively prepared for positive inhibitors of the P450 isoenzymes (CYP1A2, CYP2C9, CYP2C19, CYP2D6, CYP3A4 (with midazolam as a probe substrate), and CYP3A4 (with testosterone as a probe substrate)) and specific probe substrates thereof. Human liver microsomes, stored in a refrigerator at a temperature lower than −60° C., were thawed on ice, and once fully dissolved, were diluted with PB to prepare a working solution of a specific concentration (0.127 mg/mL). 20.0 μL of probe substrate was added to the reaction plate (20.0 μL of PB was added to the Blank wells), followed by the addition of 158 μL of human liver microsomal working solution to the reaction plate. The reaction plate was then placed on ice for later use. Then, 2.00 μL of the test compound (N=1) and specific inhibitors (N=2) were added to the corresponding wells. […] Lastly, the plate was sealed, shaken to ensure the content was thoroughly mixed, and analyzed by LC/MS/MS.

Data set [4] addresses CYP2C9 (Homo sapiens (Human), UniProt P11712). Put plainly: Inhibition of human liver microsomal cytochrome P450 isoenzyme CYP2C9. Format: in vitro ADME. To be noted: human liver microsomes. How it is done: as §1
The target in data set [5] is CYP2C19 (Homo sapiens (Human), UniProt P33261). Briefly: Inhibition of human liver microsomal cytochrome P450 isoenzyme CYP2C19. To be noted: human liver microsomes. Format: in vitro ADME. How it is done: as §1
A general note: Microsomes from liver hold many membrane-bound enzymes, among them those of drug oxidation.

Data set [6] deals with CYP2D6 (Homo sapiens (Human), UniProt P10635). Briefly: Inhibition of human liver microsomal cytochrome P450 isoenzyme CYP2D6. In kind it is in vitro ADME. Conditions: human liver microsomes. How it is done: as §1
Data set [7] has as its target CYP3A4 (Homo sapiens (Human), UniProt P08684). Briefly: Inhibition of human liver microsomal cytochrome P450 isoenzyme CYP3A4. In kind it is in vitro ADME. To be noted: human liver microsomes. Here is the method: as §1
A short description of data set [8]: Pharmacokinetic study of oral and intravenous administration in rats. Format: in vivo, rat. To be noted: male SD rats; for half-life: read-out: Half-life T1/2 (converted). How it is done:
Pharmacokinetic study of oral and intravenous administration of WX001 in rats
Male SD rats were selected, and given the test compound as detailed in Table 3.
Whole blood was collected for a certain period of time and prepared into plasma. The drug concentration was analyzed by the LC-MS/MS method, and the pharmacokinetic parameters were calculated using Phoenix WinNonlin software (Pharsight, USA).

Where [9] appears, read: rat, plasma, 30 mg/kg, oral, 30 mpk.

Sequence of THRα (P10827 other isoform, or with tags, fused parts or gaps isoform P10827-2): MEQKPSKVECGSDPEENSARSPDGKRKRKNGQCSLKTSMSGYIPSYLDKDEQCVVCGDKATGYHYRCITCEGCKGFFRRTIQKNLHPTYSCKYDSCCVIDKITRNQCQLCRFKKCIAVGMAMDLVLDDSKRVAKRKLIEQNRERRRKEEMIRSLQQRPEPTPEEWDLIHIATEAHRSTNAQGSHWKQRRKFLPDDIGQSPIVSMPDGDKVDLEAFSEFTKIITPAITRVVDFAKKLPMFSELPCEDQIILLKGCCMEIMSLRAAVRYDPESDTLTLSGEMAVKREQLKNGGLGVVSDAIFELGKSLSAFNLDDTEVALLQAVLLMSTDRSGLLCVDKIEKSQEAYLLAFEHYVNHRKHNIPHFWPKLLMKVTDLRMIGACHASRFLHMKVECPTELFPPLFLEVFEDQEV
Sequence of THRβ (P10828 whole entry, looked up, the tested form may be a part): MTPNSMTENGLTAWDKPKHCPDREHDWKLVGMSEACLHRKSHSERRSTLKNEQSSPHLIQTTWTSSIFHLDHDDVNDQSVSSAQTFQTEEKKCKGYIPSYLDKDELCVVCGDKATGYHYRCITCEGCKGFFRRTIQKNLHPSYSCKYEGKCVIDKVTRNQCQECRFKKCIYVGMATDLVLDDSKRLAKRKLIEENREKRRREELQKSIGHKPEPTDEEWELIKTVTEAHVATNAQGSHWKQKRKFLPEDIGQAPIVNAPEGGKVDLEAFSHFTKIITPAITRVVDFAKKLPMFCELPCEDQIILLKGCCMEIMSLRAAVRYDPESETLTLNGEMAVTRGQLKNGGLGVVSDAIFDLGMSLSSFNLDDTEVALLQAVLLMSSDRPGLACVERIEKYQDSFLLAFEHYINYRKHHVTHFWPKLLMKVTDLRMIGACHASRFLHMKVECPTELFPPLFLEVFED
Sequence of CYP2C19 (P33261 whole entry): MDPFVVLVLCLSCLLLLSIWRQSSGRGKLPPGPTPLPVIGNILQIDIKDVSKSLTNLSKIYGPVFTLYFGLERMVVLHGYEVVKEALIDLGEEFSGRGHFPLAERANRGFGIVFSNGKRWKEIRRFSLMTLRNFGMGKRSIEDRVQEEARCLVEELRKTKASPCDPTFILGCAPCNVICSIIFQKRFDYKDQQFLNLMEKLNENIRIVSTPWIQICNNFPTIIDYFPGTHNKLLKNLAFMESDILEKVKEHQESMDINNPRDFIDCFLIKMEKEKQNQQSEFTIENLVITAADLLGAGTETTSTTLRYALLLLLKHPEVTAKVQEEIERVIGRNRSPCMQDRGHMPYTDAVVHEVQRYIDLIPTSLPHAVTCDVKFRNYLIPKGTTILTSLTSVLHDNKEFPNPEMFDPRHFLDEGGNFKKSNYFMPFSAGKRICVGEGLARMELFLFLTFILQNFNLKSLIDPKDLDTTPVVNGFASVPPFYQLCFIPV
Sequence of CYP2C9 (P11712 whole entry): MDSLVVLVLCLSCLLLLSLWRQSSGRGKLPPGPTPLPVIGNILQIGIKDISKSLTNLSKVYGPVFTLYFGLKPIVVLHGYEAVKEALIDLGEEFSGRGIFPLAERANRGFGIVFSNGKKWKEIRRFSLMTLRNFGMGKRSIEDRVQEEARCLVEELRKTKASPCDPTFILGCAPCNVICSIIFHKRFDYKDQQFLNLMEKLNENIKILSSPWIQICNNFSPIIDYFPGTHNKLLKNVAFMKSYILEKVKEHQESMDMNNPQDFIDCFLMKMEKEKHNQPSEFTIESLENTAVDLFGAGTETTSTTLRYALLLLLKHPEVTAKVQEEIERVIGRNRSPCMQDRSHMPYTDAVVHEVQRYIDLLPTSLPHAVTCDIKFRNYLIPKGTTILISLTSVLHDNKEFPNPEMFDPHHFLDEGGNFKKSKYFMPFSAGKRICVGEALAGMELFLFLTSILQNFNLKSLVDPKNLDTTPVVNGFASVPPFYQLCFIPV
Sequence of CYP2D6 (P10635 whole entry): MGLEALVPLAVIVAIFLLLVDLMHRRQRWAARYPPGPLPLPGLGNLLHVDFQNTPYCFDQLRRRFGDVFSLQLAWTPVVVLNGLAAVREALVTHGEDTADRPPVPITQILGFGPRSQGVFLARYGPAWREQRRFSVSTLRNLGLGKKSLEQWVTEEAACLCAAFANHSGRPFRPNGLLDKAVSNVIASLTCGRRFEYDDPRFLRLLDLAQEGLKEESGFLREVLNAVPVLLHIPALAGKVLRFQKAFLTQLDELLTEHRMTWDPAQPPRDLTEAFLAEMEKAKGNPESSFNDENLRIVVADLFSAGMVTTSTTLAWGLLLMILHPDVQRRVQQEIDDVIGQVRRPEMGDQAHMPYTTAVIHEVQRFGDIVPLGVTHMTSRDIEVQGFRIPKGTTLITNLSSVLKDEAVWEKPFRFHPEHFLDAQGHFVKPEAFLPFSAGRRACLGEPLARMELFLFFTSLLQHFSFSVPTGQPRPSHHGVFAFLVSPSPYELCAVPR
Sequence of CYP3A4 (P08684 whole entry): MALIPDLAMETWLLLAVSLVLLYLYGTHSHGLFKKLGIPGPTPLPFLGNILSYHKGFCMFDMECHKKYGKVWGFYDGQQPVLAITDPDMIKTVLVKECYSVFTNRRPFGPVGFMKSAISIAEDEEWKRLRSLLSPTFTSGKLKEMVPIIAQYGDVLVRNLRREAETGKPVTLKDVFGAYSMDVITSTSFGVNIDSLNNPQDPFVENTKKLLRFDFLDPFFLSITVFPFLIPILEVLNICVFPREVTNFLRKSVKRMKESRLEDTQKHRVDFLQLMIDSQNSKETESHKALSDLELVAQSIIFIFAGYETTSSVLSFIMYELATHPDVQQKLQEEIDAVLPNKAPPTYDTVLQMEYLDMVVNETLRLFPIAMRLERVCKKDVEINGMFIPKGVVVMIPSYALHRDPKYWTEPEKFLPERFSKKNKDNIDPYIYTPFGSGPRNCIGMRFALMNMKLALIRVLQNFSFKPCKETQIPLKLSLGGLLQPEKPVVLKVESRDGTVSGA
Sequence of CYP1A2 (P05177 whole entry): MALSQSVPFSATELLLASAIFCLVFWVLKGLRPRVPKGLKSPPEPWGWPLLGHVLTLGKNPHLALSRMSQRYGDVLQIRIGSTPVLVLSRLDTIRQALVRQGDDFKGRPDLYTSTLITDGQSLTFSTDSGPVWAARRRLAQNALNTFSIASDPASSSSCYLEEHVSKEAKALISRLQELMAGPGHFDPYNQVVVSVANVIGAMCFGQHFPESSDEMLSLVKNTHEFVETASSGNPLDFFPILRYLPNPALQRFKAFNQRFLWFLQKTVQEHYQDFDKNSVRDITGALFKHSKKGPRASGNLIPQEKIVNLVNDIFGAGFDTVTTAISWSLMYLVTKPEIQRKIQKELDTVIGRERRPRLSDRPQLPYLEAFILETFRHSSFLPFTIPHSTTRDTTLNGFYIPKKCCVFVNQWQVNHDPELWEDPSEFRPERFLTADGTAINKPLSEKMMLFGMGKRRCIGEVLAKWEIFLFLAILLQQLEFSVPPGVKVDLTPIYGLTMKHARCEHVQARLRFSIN

As usually defined, the EC50 is the concentration needed to bring the measured effect to its halfway point. Broadly, the IC50 is the concentration that inhibits the measured activity by half. Read a low IC50 as greater potency in that assay. What is called bioavailability is the share of a dose that reaches the circulation, judged against a reference dose that is usually intravenous. Read a low bioavailability as little systemic uptake. For the molecule `Cc1cc(NC(=O)c2noc(=O)[nH]2)cc(C)c1Cc1ccc(O)c2c1CCCC2` [WX001], the results for the EC50 in data set [1] and in data set [2] were 0.122 µM and 0.0394 µM, respectively. Also, the “THRα maximum agnostic capability” value in data set [1] stood at 24%. Further, in data set [2], the “THRß maximum agnostic capability” value was 103%. In addition, the “inhibitory effect on CYP1A2 (in words)” value in data set [3] was “no inhibitory effects”. The concentration for half-maximal inhibition (IC50) was found to be 3.27 µM in data set [4], 5.09 µM in data set [5], 41.6 µM in data set [6] and 25.4 µM in data set [7] (midazolam as probe substrate). Also, the “inhibition against CYP2C9 (in words)” value in data set [4] is given as “moderate inhibition”. The “inhibitory effect on CYP2C19 (in words)” value in data set [5] was “no inhibitory effects”. Also, the “inhibitory effect on CYP2D6 (in words)” value in data set [6] is listed as “no inhibitory effects”. The “inhibitory effect on CYP3A4 (in words)” value in data set [7] was “no inhibitory effects”. For the same molecule, the “Area under the plasma concentration-time curve/Dosage DNAUC0-last” value in data set [8] (intravenous, 3 mpk) is listed as 5343 nM. h/mpk; in data set [8] (oral, 30 mpk), 1939 nM. h/mpk. Further, the Vd in data set [8] (rat, plasma, 3 mg/kg, intravenous, 3 mpk, read-out: Apparent volume of distribution Vdss) amounted to 0.411 L/kg. In data set [8] (rat, plasma, 3 mg/kg, intravenous, 3 mpk, read-out: Clearance CL), the clearance is 7.93 mL/min/kg. The half-life in data set [8] (rat, plasma, 3 mg/kg, intravenous, 3 mpk) is 1.66 h; in data set [8] (setting [9]), 1.6 h. Besides, in data set [8] (setting [9]), the bioavailability was found to be 36%.
As for `Cc1cc(NC(=O)c2noc(=O)[nH]2)cc(C)c1Cc1ccc(O)c(Cc2ccccc2)c1` [WX002], in data set [1], the EC50 stood at 1 µM and the “THRα maximum agnostic capability” value came out at 101%. For the same molecule, in data set [2], the midpoint of the response, the EC50, lay at 0.0856 µM and the “THRß maximum agnostic capability” value worked out at 99%.
With `Cc1cc(NC(=O)c2noc(=O)[nH]2)cc(C)c1Cc1cc(I)c(O)c2c1CCCC2` [WX005], in data set [1], the EC50 came to 0.155 µM and the “THRα maximum agnostic capability” value turned out to be 85%. Also, in data set [2], the half-maximal effective concentration (EC50) amounted to 0.0578 µM and the “THRß maximum agnostic capability” value was 96%.
Take `Cc1cc(NC(=O)c2noc(=O)[nH]2)cc(C)c1Cc1cc(F)c(O)c2c1CCCC2` [WX006]: in data set [1], the EC50 was 0.435 µM and the “THRα maximum agnostic capability” value is reported as 86%. Moreover, in data set [2], the EC50 turned out to be 0.105 µM and the “THRß maximum agnostic capability” value came to 90%.
